Columns and labels:
[1] = molecular target: T1, crude enzyme obtained from pink petals of a carnation (variety: "Beam Cherry") (glycosyltransferase) (Dianthus caryophyllus, UniProt E3W9M2); assay: Relative activity of crude carnation petal enzyme on each sugar donor (glycosyl transfer to cyanidin 3-glucoside, HPLC); format: biochemical; details: crude enzyme 61 μg, cyanidin β-glucoside 200 μM, sugar donor 500 μM, citric acid buffer pH 5.6, 30° C., 15 minutes, HPLC area of cyanidin 3,5-O-β diglucoside
T1 construct: Thus, a crude enzyme liquid was obtained; from tissue; host or cells: pink petals of carnation, variety Beam Cherry (ammonium sulfate precipitate, desalted)
T1 sequence (E3W9M2 31-502): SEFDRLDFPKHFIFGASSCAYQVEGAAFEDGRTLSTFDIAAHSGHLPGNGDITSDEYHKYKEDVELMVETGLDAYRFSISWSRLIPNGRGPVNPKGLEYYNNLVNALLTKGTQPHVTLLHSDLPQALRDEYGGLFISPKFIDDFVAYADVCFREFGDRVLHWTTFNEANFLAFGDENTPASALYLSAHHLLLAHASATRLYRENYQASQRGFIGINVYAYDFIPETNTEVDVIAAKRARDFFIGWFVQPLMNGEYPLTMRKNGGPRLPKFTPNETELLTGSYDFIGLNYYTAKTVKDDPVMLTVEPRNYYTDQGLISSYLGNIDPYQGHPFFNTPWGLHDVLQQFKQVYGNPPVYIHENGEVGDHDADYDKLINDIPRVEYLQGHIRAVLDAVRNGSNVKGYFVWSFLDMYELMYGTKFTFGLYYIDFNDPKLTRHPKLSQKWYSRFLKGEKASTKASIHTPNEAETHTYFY
Experimental: An enzyme reaction was carried out at 30° C. for 15 minutes in a reaction solution obtained by adding a citric acid buffer (pH 5.6) to a crude enzyme obtained from pink petals of a carnation (variety: “Beam Cherry”) (61 μg), cyanidin β-glucoside (200 μM), and a sugar donor (1-O-β-vanillyl glucose extracted from a carnation or any of synthesized 1-O-vanillyl glucose (in the α or β form), 1-O-isovanillyl glucose (in the α or β form), and 1-O-galloyl glucose (in the α or β form)) (500 μM) to a final volume of 30 μl. The reaction was terminated by adding a 20% phosphoric acid aqueous solution to the reaction liquid so as to result in a final phosphoric acid concentration of 1%, followed by centrifugation. The obtained supernatant was subjected to separation using an HPLC (Chromolith Speed ROD; 4.6×50 mm; Merck) with a linear gradient (5 minutes) of 18% to 28% liquid B containing eluent A (a 1.5% phosphoric acid aqueous solution) and eluent B (a 90% methanol aqueous solution) (flow rate: 3.0 ml/min; 520 nm), followed by analysis. The relative activity of the enzyme on each sugar donor was calculated based on the HPLC chromatogram area of a reaction product (cyanidin 3,5-O-β diglucoside) at a wavelength of 505 nm.

[2] = molecular target: T2, glycosyltransferase in crude enzyme liquid from pink carnation petals (Dianthus caryophyllus, UniProt E3W9M2); assay: Detection of glycosyl transfer reaction with carnation petal crude enzyme liquid (HPLC); format: biochemical; details: pH 5.6, 30° C.
T2 construct: Thus, a crude enzyme liquid was obtained; from tissue; host or cells: pink petals of carnation, variety Beam Cherry (ammonium sulfate precipitate, desalted)
T2 sequence (E3W9M2 31-502): T1 sequence (E3W9M2 31-502)
Experimental: Pink petals of a carnation (variety: “Beam Cherry”) were ground into a powder in liquid nitrogen using a mortar and a pestle. The obtained powder was added in a stepwise manner to a 50 mM potassium phosphate buffer (pH 7.2) and dissolved therein via stirring to prevent freezing. Then, an insoluble fraction was removed by centrifugation. A saturate ammonium sulfate solution was added to the obtained supernatant so as to result in a concentration of 80%. The mixture was left on ice for 5 minutes. The precipitated protein was collected by centrifugation. A 10 mM potassium phosphate buffer was added thereto for complete dissolution. The obtained solution was applied to a Sephadex G-25 gelfiltration support (GE Healthcare) for desalting. Thus, a crude enzyme liquid was obtained. […]
Glycosyltransferase activity was examined using a crude enzyme extracted from pink petals of a carnation (variety: “Beam Cherry”) or petals of a delphinium (variety: “marine blue”) in the manner described in Example 1. […] Then, the supernatant was analyzed by HPLC. […]

[3] = molecular target: T3, glycosyltransferase in crude enzyme extracted from petals of a delphinium (variety: "marine blue") (Delphinium grandiflorum, UniProt E3W9M3); assay: Detection of glycosyl transfer reaction with delphinium petal crude enzyme (HPLC); format: biochemical, delphinium (Delphinium grandiflorum L.); details: cyanidin 3-O-β-glucoside 200 μM, sugar donor 1 mM, pH 5.6, 30° C., 15 minutes
T3 construct: Glycosyltransferase activity was examined using a crude enzyme extracted from; from tissue
T3 sequence (E3W9M3 26-505): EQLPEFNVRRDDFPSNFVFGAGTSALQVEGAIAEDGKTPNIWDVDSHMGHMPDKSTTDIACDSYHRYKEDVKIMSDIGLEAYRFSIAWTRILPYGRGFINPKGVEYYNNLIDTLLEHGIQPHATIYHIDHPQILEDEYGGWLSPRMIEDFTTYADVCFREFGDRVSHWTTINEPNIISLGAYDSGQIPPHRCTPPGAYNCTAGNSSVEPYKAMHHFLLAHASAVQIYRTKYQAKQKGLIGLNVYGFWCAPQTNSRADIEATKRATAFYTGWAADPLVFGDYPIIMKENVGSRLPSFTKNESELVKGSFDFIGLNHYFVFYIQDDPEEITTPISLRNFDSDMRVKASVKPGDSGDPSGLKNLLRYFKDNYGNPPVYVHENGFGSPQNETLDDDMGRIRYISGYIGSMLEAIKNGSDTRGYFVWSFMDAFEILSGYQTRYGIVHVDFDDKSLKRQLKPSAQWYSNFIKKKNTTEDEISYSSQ
Experimental: Glycosyltransferase activity was examined using a crude enzyme extracted from pink petals of a carnation (variety: “Beam Cherry”) or petals of a delphinium (variety: “marine blue”) in the manner described in Example 1. Cyanidin 3-O-β-glucoside (final concentration: 200 μM) and 1-O-β-p-hydroxybenzoyl glucose (final concentration: 1 mM) were used as a receptor and a sugar donor, respectively. The pH was adjusted to 5.6 with a citric acid buffer, followed by a glycosyltransferase reaction at 30° C. for 15 minutes. The reaction was terminated with phosphoric acid (final concentration: 1%), followed by centrifugation for the removal of insoluble matter. Then, the supernatant was analyzed by HPLC. HPLC analysis was carried out using a 1.5% phosphoric acid aqueous solution and methanol as eluents and a Wakopak Handy ODS column (4.6×250 mm, Wako Pure Chemical Industries, Ltd.). Separation was carried out at a flow rate of 1 ml/min with a linear gradient of 20% to 55% methanol (20 minutes). A reaction product was confirmed using a photodiode array detector.

| Compound | Relative activity of an enzyme on a sugar donor (when synthetic 1-O-β-vanillyl glucose is set as 100) [1] | Relative activity of an enzyme on a sugar donor (when synthetic 1-O-β-vanillyl glucose is set as 100) ([1]; listed as 1-O-β-vanillyl glucose (from carnation)) | Function as sugar donor (generation of cyanidin 3,5-O-β-diglucoside from cyanidin 3-glucoside) ([2]; carnation crude enzyme liquid, 40 minutes) | Recognition as sugar donor by carnation glycosylation enzyme ([2]; carnation crude enzyme, cyanidin 3-O-β-glucoside 200 μM, sugar donor 1 mM, 15 minutes) | Recognition as sugar donor by delphinium glycosylation enzyme [3] |
| --- | --- | --- | --- | --- | --- |
| COc1cc(C(=O)OC2OC(CO)C(O)C(O)C2O)ccc1O (centres unmarked) | 100 | 97.9 | functions as a sugar donor |  |  |
| O=C(OC1OC(CO)C(O)C(O)C1O)c1ccc(O)cc1 (stereo not drawn) [1-O-β-p-hydroxybenzoyl glucose] |  |  |  | recognize 1-O-β-p-hydroxybenzoyl glucose as a sugar donor | recognize 1-O-β-p-hydroxybenzoyl glucose as a sugar donor |
